Reference: ChEMBL document CHEMBL1129549, “Complexes of HIV-1 reverse transcriptase with inhibitors of the HEPT series reveal conformational changes relevant to the design of potent non-nucleoside inhibitors” (J Med Chem, 1996)

Target: Human immunodeficiency virus type 1 reverse transcriptase (Human immunodeficiency virus 1, UniProt Q72547)
Test: Inhibitory activity against HIV-1 reverse transcriptase

Row | Compound | IC50 [µM]
1 | CC(C)c1c(Cc2ccccc2)n(COCc2ccccc2)c(=O)[nH]c1=O | 0.006
2 | Cc1c(Sc2ccccc2)n(COCCO)c(=O)[nH]c1=O [HEPT] | 17
